{
  "source": "patent US7462464B1",
  "about": "“Method for the detection of antimicrobial residues in food and bodily fluid samples” (priority 1999, dated 2008)",
  "type_in_all_cases": "cell-based",
  "key": {"[1]": {"system": "Bacillus stearothermophilus", "experiment": "Premi Test microbial inhibition test, spiked chicken meat juice with thickening agent", "protocol": "(§1) The samples were then examined using microbial inhibition test ampoules produced according to the methods described in EP 0005891 with the nutrients present in the agar. The said test is also known as Premi®Test (commercially available from DSM N.V., Delft, The Netherlands).\nFresh chicken breast meat of a negative chicken was obtained from a slaughterhouse (negative in the sense of the presence of antibiotics). To obtain meat fluid for further testing pieces of meat were heated for 10 minutes at 64° C. and gently sqeezed using a garlic press. Spiked samples were prepared by adding Amoxicillin (0, 5 and 10 ppb), Oxytetracycline (0, 75 and 100 ppb) or Sulphadiazine (0, 75 and 100 ppb) to the meat juice.\nTo a part of said samples the thickening agent methylcellulose (4000 c.p.i., Sigma) was added to a final concentration of 1.5%.\n100 μl of each sample was added to the Premi®Test ampoules (in duplicate) following the procedure described in Example 1. However, since a thickening agent was added, the pre-incubation step was not required anymore. Also the heating of the samples for 10 minutes at 80° C. was not required for this specific sample.\nIn addition a similar experiment was executed. However, now samples containing 10 ppb of Amoxycillin or 200 ppb of Oxytetracycline were prepared and the thickening agent bovine albumine (Sigma) was added to a final concentration of 6%."}, "[2]": {"system": "Bacillus stearothermophilus", "experiment": "Premi Test microbial inhibition test, spiked bovine kidney pre-urine", "details": "part of sample with methylcellulose 1.5%, controls yellow after 185 minutes", "from_the_text": "Fresh kidneys of 7 negative (negative in the sense of the presence of antibiotics) cows were obtained from a slaughterhouse. To obtain samples for testing for the presence or absence of antimicrobial drug residues, the rosettes of the kidneys were divided into pieces. The pieces were gently squeezed using a garlic press to obtain pre-urine.\nas §1\n100 μl of each of the 7 squeezed samples (pre-urine) was added to the test ampoules and heated for 10 minutes at 80° C. in a waterbath, the ampoules were immediately placed in a waterbath of 64° C. and incubated following the instructions of the manufacturer.\nThe experiment was executed as described in Example 1. However now to a part of the pre-urine sample the thickening agent methylcellulose (4000 c.p.i., Sigma) was added to a final concentration of 1.5%. Also spiked samples were prepared following the method described in Example 6."}, "[3]": {"system": "Bacillus stearothermophilus", "experiment": "Delvotest microbial inhibition test, spiked egg samples", "details": "heated 10 minutes at 80° C., incubated at 64° C., read after 140 minutes", "protocol": "A hole of approximately 1-2 cm2 was made in the egg, the egg yolk was pricked and the egg was placed with the hole down on a bottle allowing the egg white and egg yolk to drip into the bottle. After the egg had emptied, the bottle was closed and the sample was homogenized by shaking. To inactivate the natural inhibiting compounds present in the egg sample, 100 μl of each of the 5 samples was added on Delvotest® ampoules. The test was produced according to the methods described in EP 0005891 with the nutrients present in the agar. After heating for 10 minutes at 80° C. in a waterbath, the ampoules were immediately placed in a waterbath at 64° C. and incubated following the instructions of the producer. […] Egg samples were obtained according to the method described in Example 3. The samples were spiked by adding Penicillin G (0 and 4 ppb) or Sulphadiazine (0 and 100 ppb). The egg samples were added to Delvotest® ampoules (see Example 3) according to the method described in this invention: heated for 10 minutes at 80° C., and then, immediately placed in a waterbath at 64° C. and incubated following the instructions of the manufacturer."}, "[4]": {"system": "Bacillus stearothermophilus", "experiment": "Microbial inhibition test ampoules (EP 0005891), spiked raw milk", "details": "with or without bovine albumine 6% or heating 10 minutes at 80° C., controls yellow after 160-185 minutes", "protocol": "Raw milk samples of negative cows were obtained from a farmer (negative in the sense of the presence of antibiotics). Spiked samples were prepared by adding Penicillin G to the milk (0, 4 and 6 ppb). To a part of said samples the thickening agent bovine albumine (Sigma) was added to a final concentration of 6%. The samples were then examined using microbial inhibition test ampoules produced according to the method described in EP 0005891 with the nutrients in the agar. 100 μl of milk was added to the test ampoules. A part of the test ampoules with the raw milk sample was heated for 10 minutes at 80° C. as described in Example 1. All experiments were executed in five fold. The tests were further incubated following the methods described in Example 1."}},
  "data": [
    {"smiles": "CC1(C)S[C@@H]2[C@H](NC(=O)[C@H](N)c3ccc(O)cc3)C(=O)N2[C@H]1C(=O)O", "note": "[Amoxicillin]", "values": [
      {"measurement": "test colour / result (purple = positive)", "setting": "[1]; chicken meat juice spiked with 5 ppb, part of samples with methylcellulose 1.5%, after 160 minutes", "value": "remained purple (positive)"},
      {"measurement": "test colour / result (purple = positive)", "setting": "[1]; chicken meat juice spiked with 10 ppb, bovine albumine 6%, after 165 minutes", "value": "remained purple"},
      {"measurement": "test colour / result (purple = positive)", "setting": "[1]; chicken meat juice spiked with 10 ppb, part of samples with methylcellulose 1.5%, after 160 minutes", "value": "remained purple (positive)"},
      {"measurement": "test colour / result (purple = positive)", "setting": "[2]; pre-urine spiked with 5 ppb", "value": "remained purple (positive)"},
      {"measurement": "test colour / result (purple = positive)", "setting": "[2]; pre-urine spiked with 10 ppb", "value": "remained purple (positive)"}
    ]},
    {"smiles": "Nc1ccc(S(=O)(=O)Nc2ncccn2)cc1", "note": "[Sulphadiazine]", "values": [
      {"measurement": "test colour / result (purple = positive)", "setting": "[1]; chicken meat juice spiked with 75 ppb, part of samples with methylcellulose 1.5%, after 160 minutes", "value": "remained purple (positive)"},
      {"measurement": "test colour / result (purple = positive)", "setting": "[1]; chicken meat juice spiked with 100 ppb, part of samples with methylcellulose 1.5%, after 160 minutes", "value": "remained purple (positive)"},
      {"measurement": "test colour / result (purple = positive)", "setting": "[2]; pre-urine spiked with 75 ppb", "value": "remained purple (positive)"},
      {"measurement": "test colour / result (purple = positive)", "setting": "[2]; pre-urine spiked with 100 ppb", "value": "remained purple (positive)"},
      {"measurement": "test colour / result (purple = positive, growth of test organism inhibited)", "setting": "[3]; egg sample spiked with 100 ppb", "value": "remained purple (positive)"}
    ]},
    {"smiles": "CC1(C)S[C@@H]2[C@H](NC(=O)Cc3ccccc3)C(=O)N2[C@H]1C(=O)O", "note": "[Penicillin G]", "values": [
      {"measurement": "test colour / result (purple = positive)", "setting": "[4]; raw milk spiked with 4 ppb", "value": "remained purple (positive)"},
      {"measurement": "test colour / result (purple = positive)", "setting": "[4]; raw milk spiked with 6 ppb", "value": "remained purple (positive)"},
      {"measurement": "test colour / result (purple = positive, growth of test organism inhibited)", "setting": "[3]; egg sample spiked with 4 ppb", "value": "remained purple (positive)"}
    ]}
  ]
}
